# Assay results reported in paper PMC10303159, “Conjugation of Triterpenic Acids of Ursane and Oleanane Types with Mitochondria-Targeting Cation F16 Synergistically Enhanced Their Cytotoxicity against Tumor Cells” (Membranes, 2023).
# Counter-ions that a name gives are not always drawn.
# Tests used:
# rat liver mitochondria [1] = assay: Mitochondrial membrane potential (TPP-sensitive electrode); type: biochemical; settings: glutamate + malate or succinate + rotenone, Figure 5
# Procedure: (§1) Mitochondria were obtained from the liver of male Wistar rats (210–250 g) using the differential centrifugation method. The detailed procedure and composition of the isolation media were described earlier. The suspension of isolated mitochondria contained about 60–70 mg of mitochondrial protein per ml (determined by the Bradford method).
# The mitochondrial membrane potential (Δψ) was measured using a penetrating tetraphenylphosphonium bromide (TPP) cation and a TPP-sensitive electrode (Nico-Analyte Ltd., Moscow, Russia) as described previously. The concentration of mitochondrial protein was 1 mg/mL.
# [2] = tested on: A549 cells (human lung carcinoma); assay: MTT cytotoxicity assay, A549; type: cell-based; settings: for IC50: MTT assay, 48 h of treatment, mean ± SEM
# Excerpt: (§2) All cell lines used in this study (human non-small cell lung cancer—H1299 (Accession Number—CRL-5803), human lung carcinoma—A549 (Accession Number—CCL-185), human breast adenocarcinoma—MCF-7 (Accession Number—HTB-22), human breast ductal carcinoma—BT474 (Accession Number—HTB-20)) were purchased from American Type Culture Collection (ATCC, Manassas, VA, USA). Human primary dermal fibroblasts (HPDF) derived from a patch of skin of healthy donors (n = 3) were obtained from the biobank of the Institute for Regenerative Medicine, Lomonosov Moscow State University, collection ID: MSU_FB (https://human.depo.msu.ru (accessed on 14 September 2021)). Cells were grown in DMEM media supplemented with 10% fetal bovine serum, 100 μg/mL gentamycin, and 2 mM of glutamine at 37 °C in a 5% CO2 atmosphere.
# (§3) To carry out the MTT assay, 3500 cells per well were seeded in 96-well plates. […] DMSO was used as a control. […] After removing the thiazol-containing medium, 150 μL of isopropyl alcohol (supplemented with 40 mM HCl and 0.1% NP-40) was added to dissolve the MTT-formazan salt. The absorbance at 570 and 630 nm (reference) was measured using a BioRad iMark microplate reader (BioRad, Hercules, CA, USA). Four biological replicates were used for the experiment. The results were processed with Excel software (version number: 14.0.6023.1000 (32-bit)). IC50 values were calculated by using AAT Bioquest online calculator (https://www.aatbio.com/tools/ic50-calculator, accessed on 15 May 2023) and are represented as the mean ± SEM.
# rat liver mitochondria [3] = assay: Respiration of isolated mitochondria fueled by succinate; type: biochemical
# Procedure: as §1
# (§4) The rate of O2 consumption by mitochondrial samples was estimated using Oxygraph Plus (Hansatech Instruments Ltd., Pentney, King’s Lynn, UK). The reaction medium included 200 mM sucrose, 20 mM KCl, 0.5 mM EGTA, 5 mM KH2PO4, and 10 mM Hepes/KOH, pH 7.4. The following combinations of substrates and reagents were used: 2.5 mM potassium glutamate + 2.5 mM potassium malate and 5 mM potassium succinate + 1 µM rotenone. Under these conditions, it is possible to assess the oxygen-consuming capacity of mitochondria through complexes I and II of the electron transport chain. To determine the rates of the phosphorylating respiration (State 3) and uncoupled respiration (State 3UDNP) of the mitochondria, 200 µM ADP and 50 µM 2,4-dinitrophenol (DNP) were added sequentially. The concentration of mitochondrial protein was 1 mg/mL.
# [4] = tested on: BT474 cells (human breast ductal carcinoma); assay: MTT cytotoxicity assay, BT474; type: cell-based; settings: BT-474, 48 h of treatment, mean ± SEM
# Excerpt: as §2
# (§5) To carry out the MTT assay, 3500 cells per well were seeded in 96-well plates. A day after the seeding, triterpenoids or their derivatives dissolved in DMSO were added. DMSO was used as a control. At 48 h after cell seeding, 10 μL of 5 mg/mL Thiazolyl Blue (Paneko, Russia) solution was added to each well and cells were kept for 3 h at 37 °C in a CO2 incubator. After removing the thiazol-containing medium, 150 μL of isopropyl alcohol (supplemented with 40 mM HCl and 0.1% NP-40) was added to dissolve the MTT-formazan salt. The absorbance at 570 and 630 nm (reference) was measured using a BioRad iMark microplate reader (BioRad, Hercules, CA, USA). Four biological replicates were used for the experiment. The results were processed with Excel software (version number: 14.0.6023.1000 (32-bit)). IC50 values were calculated by using AAT Bioquest online calculator (https://www.aatbio.com/tools/ic50-calculator, accessed on 15 May 2023) and are represented as the mean ± SEM.
# [5] = tested on: Human primary dermal fibroblasts (HPDF); assay: MTT cytotoxicity assay, HPDF; type: cell-based; settings: for IC50: Homo sapiens, Fibroblast, MTT assay, 48 h of treatment, mean ± SEM; for Selectivity against tumor cells and human fibroblasts: in words
# Excerpt: as §2, §3
# [6] = tested on: H1299 cells (human non-small cell lung cancer); assay: MTT cytotoxicity assay, H1299; type: cell-based; settings: mean ± SEM
# Excerpt: as §2, §5
# [7] = tested on: MCF-7 cells (human breast adenocarcinoma); assay: MTT cytotoxicity assay, MCF-7; type: cell-based; settings: for IC50: Homo sapiens, MCF7, MTT assay, 48 h of treatment, mean ± SEM
# Excerpt: as §2, §5
# rat liver mitochondria [8] = assay: Respiration of isolated mitochondria fueled by glutamate and malate; type: biochemical
# Procedure: as §1, §4
# BT474 cells = assay: Oxidative stress assay (Muse Oxidative Stress Kit), BT474; type: cell-based, human; settings: BT474, 3 μM
# Procedure: Oxidative stress was assessed after cell culture and incubation (as described above). For this, cells were harvested by trypsinization, washed with ice-cold PBS buffer (pH 7.4), and centrifuged (1000 rpm, 5 min). The resulting cells were resuspended in PBS. Cell population analysis for oxidative stress was performed on a Muse cell analyzer (Merck Millipore, Burlington, MA, USA) using the Muse Oxidative Stress Kit (MCH100111) according to the manufacturer’s protocol.
# [9] = Homo sapiens, NCI-H1299, 48 h of treatment
Structure (SMILES),"IC50 ([2]; Homo sapiens, A549, 48 h) [µM]",IC50 [2] [µM],ADP/O (rat liver mitochondria [3]; 20 μM),RC (state 3/state 4) (rat liver mitochondria [3]; 20 μM) [rel. un.],State 2 respiration (rat liver mitochondria [3]; 20 μM) [nmol O2/min/mg Protein],State 3UDNP respiration (rat liver mitochondria [3]; 20 μM) [nmol O2/min/mg Protein],State 3 respiration (rat liver mitochondria [3]; 20 μM) [nmol O2/min/mg Protein],State 4 respiration (rat liver mitochondria [3]; 20 μM) [nmol O2/min/mg Protein],IC50 [4] [µM],IC50 [5] [µM],Selectivity against tumor cells and human fibroblasts [5],"IC50 [6, 9] [µM]",IC50 [7] [µM],ADP/O (rat liver mitochondria [8]; 20 μM) [rel. un.],RC (state 3/state 4) (rat liver mitochondria [8]; 20 μM) [rel. un.],State 2 respiration (rat liver mitochondria [8]; 20 μM) [nmol O2/min/mg Protein],State 3UDNP respiration (rat liver mitochondria [8]; 20 μM) [nmol O2/min/mg Protein],State 3 respiration (rat liver mitochondria [8]; 20 μM) [nmol O2/min/mg Protein],State 4 respiration (rat liver mitochondria [8]; 20 μM) [nmol O2/min/mg Protein],also measured
"C[C@H]1[C@H](C)CC[C@]2(C(=O)O)CC[C@]3(C)C(=CC[C@@H]4[C@@]5(C)CC[C@H](O)C(C)(C)[C@@H]5CC[C@]43C)[C@H]12 [UA, ursolic acid, reference compound]",68.9,68.9 ± 19.6,1.43 ± 0.04 rel. un.,3.32 ± 0.12,15.19 ± 0.27,75.91 ± 1.74,49.15 ± 0.30,15.54 ± 0.62,110 ± 19.1,59.1 ± 7.73,have not shown selectivity,97.6 ± 5.63,40.6 ± 12.5,2.82 ± 0.03,2.13 ± 0.09,8.01 ± 0.15,36.66 ± 1.47,26.92 ± 0.64,12.65 ± 0.32,Effect on membrane potential of organelles (rat liver mitochondria [1]): did not show such an ability
"CC1CCC2(C(=O)OCCCC[n+]3ccc(C=Cc4c[nH]c5ccccc45)cc3)CCC3(C)C(=CCC4C5(C)CC(O)C(O)C(C)(C)C5CCC43C)C2C1C (stereo not drawn) [CA-F16, N-{4-[(2α,3β-dihydroxy-urs-12-en-28-oyl)-butyl]-(E)-4-[2-(1H-indol-3-yl)-vinyl]}pyridinium bromide]",1.9,1.87 ± 0.14,–,–,–,–,–,–,6.7 ± 0.35,1.15 ± 0.38,–,4.01 ± 1.69,1.89 ± 0.27,–,–,–,–,–,–,"Cytotoxicity higher than that of ursolic acid ([2]; A549 line, ratio of IC50 values): 36 times"
"CC1CCC2(C(=O)OCCCC[n+]3ccc(C=Cc4c[nH]c5ccccc45)cc3)CCC3(C)C(=CCC4C5(C)CC(O)C(O)C(C)(C)C5CCC43C)C2C1C (stereo not drawn) (as salt: bromide) [CA-F16, N-{4-[(2α,3β-dihydroxy-urs-12-en-28-oyl)-butyl]-(E)-4-[2-(1H-indol-3-yl)-vinyl]}pyridinium bromide]",–,–,–,–,–,–,–,–,–,–,–,–,–,–,–,–,–,–,–,melting point: 219 to 221 °C
"CC1(C)CCC2(C(=O)OCCCC[n+]3ccc(C=Cc4c[nH]c5ccccc45)cc3)CCC3(C)C(=CCC4C5(C)CC(O)C(O)C(C)(C)C5CCC43C)C2C1 (stereo not drawn) (as salt: bromide) [MA-F16, N-{4-[(2α,3β-dihydroxy-olean-12-en-28-oyl)-butyl]-(E)-4-[2-(1H-indol-3-yl)-vinyl]}pyridinium bromide]",–,–,–,–,–,–,–,–,–,–,–,–,–,–,–,–,–,–,–,melting point: 206 to 208 °C
"CC1(C)CC[C@]2(C(=O)O)CC[C@]3(C)C(=CC[C@@H]4[C@@]5(C)CC[C@H](O)C(C)(C)[C@@H]5CC[C@]43C)[C@@H]2C1 [OA, oleanolic acid, reference compound]",236,234 ± 22.1,1.45 ± 0.05 rel. un.,2.80 ± 0.09,15.06 ± 0.15,69.92 ± 0.68,48.00 ± 0.60,17.18 ± 0.78,150 ± 25.1,156 ± 10.4,have not shown selectivity,–,114 ± 12.6,2.53 ± 0.12,2.11 ± 0.12,8.39 ± 0.09,35.74 ± 0.66,27.31 ± 0.31,13.23 ± 0.18,"Effect on membrane potential of organelles (rat liver mitochondria [1]): slightly reduce the membrane potential; IC50 ([6]; 48 h of treatment): 139 ± 6.85 µM; IC50 ([6]; Homo sapiens, NCI-H1299, 48 h, 48 h of treatment): 139 µM"
"CC1(C)CCC2(C(=O)OCCCC[n+]3ccc(C=Cc4c[nH]c5ccccc45)cc3)CCC3(C)C(=CCC4C5(C)CC(O)C(O)C(C)(C)C5CCC43C)C2C1 (stereo not drawn) [MA-F16, N-{4-[(2α,3β-dihydroxy-olean-12-en-28-oyl)-butyl]-(E)-4-[2-(1H-indol-3-yl)-vinyl]}pyridinium bromide]",13.5 ± 2.02,–,–,–,–,–,–,–,11.1 ± 2.51,9.3 ± 2.56,–,10.5 ± 2.44,7.44 ± 0.78,–,–,–,–,–,–,–
CC1CCC2(C(=O)OCCCC[n+]3ccc(C=Cc4c[nH]c5ccccc45)cc3)CCC3(C)C(=CCC4C5(C)CCC(O)C(C)(C)C5CCC43C)C2C1C (stereo not shown) [UA-F16],2.4 ± 0.3,–,0.86 ± 0.05 *#^γ rel. un.,1.37 ± 0.11,15.86 ± 0.40,64.18 ± 3.81,43.98 ± 1.31,32.20 ± 1.68,5.18 ± 0.15,4.98 ± 0.9,highest selectivity,2.8 ± 0.25,1.36 ± 0.74,0.74 ± 0.14,1.02 ± 0.02,14.75 ± 0.21,28.29 ± 1.18,19.35 ± 0.90,19.06 ± 1.11,"ADP/O (rat liver mitochondria [3]; 10 μM): 1.28 ± 0.04 rel. un.; RC (state 3/state 4) (rat liver mitochondria [3]; 10 μM): 2.65 ± 0.07 rel. un.; State 2 respiration (rat liver mitochondria [3]; 10 μM): 14.42 ± 0.24 nmol O2/min/mg Protein; State 3UDNP respiration (rat liver mitochondria [3]; 10 μM): 67.34 ± 2.12 nmol O2/min/mg Protein; State 3 respiration (rat liver mitochondria [3]; 10 μM): 46.39 ± 0.30 nmol O2/min/mg Protein; State 4 respiration (rat liver mitochondria [3]; 10 μM): 17.51 ± 0.23 nmol O2/min/mg Protein; Selectivity index (SI) ([5]; between tumor cells H1299, A549 and MCF-7 and fibroblasts): 1.8–3.7; Chou–Talalay combination index (CI) ([7]; MCF7 cells, based on IC50 values for parent acid, F16 [23] and conjugate, CI < 1 synergism): 0.05; Effect on level of ROS-positive cells (BT474 cells): significantly increase the level of ROS-positive cells; ADP/O (rat liver mitochondria [8]; 10 μM): 2.65 ± 0.05 rel. un.; RC (state 3/state 4) (rat liver mitochondria [8]; 10 μM): 2.20 ± 0.04 rel. un.; State 2 respiration (rat liver mitochondria [8]; 10 μM): 7.70 ± 0.33 nmol O2/min/mg Protein; State 3UDNP respiration (rat liver mitochondria [8]; 10 μM): 35.23 ± 0.89 nmol O2/min/mg Protein; State 3 respiration (rat liver mitochondria [8]; 10 μM): 25.89 ± 0.86 nmol O2/min/mg Protein; State 4 respiration (rat liver mitochondria [8]; 10 μM): 11.78 ± 0.22 nmol O2/min/mg Protein"
